Earlier results as cited in patent US12326454B2 (Arium BioLabs LLC, priority 2019, dated 2025).

Target: cMET (Homo sapiens, UniProt P08581)
Conditions: stabilizes the A-loop, auto-inhibited conformation

Chain of cMET (P08581 25-1390): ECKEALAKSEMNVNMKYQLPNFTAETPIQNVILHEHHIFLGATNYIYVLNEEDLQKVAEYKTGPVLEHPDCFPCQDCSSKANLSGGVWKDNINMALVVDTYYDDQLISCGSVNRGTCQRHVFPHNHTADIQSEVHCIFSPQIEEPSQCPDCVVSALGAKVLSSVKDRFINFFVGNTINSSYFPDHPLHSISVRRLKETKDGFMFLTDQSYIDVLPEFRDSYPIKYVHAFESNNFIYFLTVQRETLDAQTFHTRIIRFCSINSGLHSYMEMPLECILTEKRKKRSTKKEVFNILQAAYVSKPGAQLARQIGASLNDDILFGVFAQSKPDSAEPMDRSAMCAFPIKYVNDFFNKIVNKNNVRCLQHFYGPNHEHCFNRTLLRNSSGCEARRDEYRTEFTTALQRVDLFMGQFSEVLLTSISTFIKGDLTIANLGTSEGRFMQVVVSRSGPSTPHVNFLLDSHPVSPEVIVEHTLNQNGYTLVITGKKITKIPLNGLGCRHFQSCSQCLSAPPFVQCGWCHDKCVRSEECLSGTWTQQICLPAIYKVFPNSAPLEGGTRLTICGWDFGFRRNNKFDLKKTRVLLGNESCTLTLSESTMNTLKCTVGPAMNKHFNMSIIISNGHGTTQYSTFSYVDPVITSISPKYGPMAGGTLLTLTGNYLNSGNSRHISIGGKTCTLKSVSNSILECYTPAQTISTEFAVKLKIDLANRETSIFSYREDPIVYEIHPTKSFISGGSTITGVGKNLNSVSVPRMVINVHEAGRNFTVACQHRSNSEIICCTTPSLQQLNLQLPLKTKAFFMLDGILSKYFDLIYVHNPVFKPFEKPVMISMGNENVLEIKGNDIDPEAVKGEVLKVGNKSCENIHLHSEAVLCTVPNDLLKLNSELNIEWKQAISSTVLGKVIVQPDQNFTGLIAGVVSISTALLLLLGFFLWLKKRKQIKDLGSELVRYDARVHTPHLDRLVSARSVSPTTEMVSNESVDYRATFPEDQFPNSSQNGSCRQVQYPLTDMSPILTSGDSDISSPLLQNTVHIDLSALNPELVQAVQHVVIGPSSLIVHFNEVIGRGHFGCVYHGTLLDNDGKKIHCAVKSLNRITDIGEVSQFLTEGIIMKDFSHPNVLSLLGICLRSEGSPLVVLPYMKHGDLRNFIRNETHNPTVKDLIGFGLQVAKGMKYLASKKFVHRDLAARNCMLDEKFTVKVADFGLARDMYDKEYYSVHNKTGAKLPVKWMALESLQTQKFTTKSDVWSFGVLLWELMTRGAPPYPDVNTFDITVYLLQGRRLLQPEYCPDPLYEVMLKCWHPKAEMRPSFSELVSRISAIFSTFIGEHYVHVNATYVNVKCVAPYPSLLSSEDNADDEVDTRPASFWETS

effect on cMET: selectively inhibits cMET
Structure (SMILES): O=C1NC(=O)[C@@H](c2cn3c4c(cccc24)CCC3)[C@@H]1c1c[nH]c2ccccc12 [ARQ197]
